Patent US20220062247A1, “USE OF A PAR-1 ANTAGONIST FOR THE TREATMENT OF A CHRONIC INFLAMMATORY INTESTINAL DISEASE” (CVASTHERA, priority 2018, published 2022)

Experiments:
[1] = tested on: inflammatory bowel disease induced by 2,4,6-trinitrobenzenesulfonic acid (TNBS); assay: Colitis induced by intra-colonical TNBS in rats (body weight, DAI score, colon wall thickness, macroscopic damage score, MPO); assay type: in vivo, male laboratory rat of the Wistar strain
Text: The purpose of this study is to assess the effectiveness of two PAR-1 antagonists, vorapaxar and 3-2-(chloro-phenyl)-1-[4-(4-fluoro-benzyl)-piperazine-1-yl]propenone (hereinafter, referred to as CSI) in a model of an inflammatory bowel disease induced by 2,4,6-trinitrobenzenesulfonic acid (TNBS) in a male laboratory rat of the Wistar strain. This model is described in the publication of Whittle et al., 2003, in Methods Mol. Biol., 225, 209-222.
In this induced colitis model, the inflammatory reaction is measured every day and is well established 7 days after intra-colonical administration of TNBS.
(§1) Different parameters are measured: the weight of the rats, the presence of blood in the faeces and the diarrhoeas assessed by the disease activity index (DAI score), the intensity of pain (assessed by Von Frey filaments technique measured on days 3 and 7).
The rats are sacrificed 7 days after the beginning of the treatment and the macroscopic damages, the oedema and a marker of the inflammation, myeloperoxidase (MPO), are quantified.
The experiments with the PAR-1 antagonists are carried out in two studies, relating to vorapaxar and CSI, respectively.
The colitis is induced by intra-colonical administration of 2,4,6-trinitrobenzenesulfonic acid (TNBS) (30 mg of TNBS in 0.25 ml of a 50% ethanol/NaCl solution) via a catheter (polyethylene (PE)-60) inserted 8 cm proximally from the anus.
Four groups of 10 rats receive an intra-colonical administration of TNBS, as well as a per os treatment of vorapaxar at the dose of 2.5 mg/kg/day or of CSI at doses of 10 and 40 mg/kg/day or of prednisolone (a compound proposed by the prior art for the treatment of IBDs) at the dose of 3 mg/kg/day. The per os treatments start 1 h before the intra-colonical administration of TNBS.
As a negative comparative example, 1 group of 10 rats receives an intra-colonical administration of TNBS and of the vorapaxar vehicle (phosphate buffered saline—PBS) or of the CSI vehicle (carboxymethyl cellulose—CMC at 1%) per os daily.
Moreover, 1 group of 6 control rats receives an intra-colonical administration of NaCl instead of TNBS.
The DAI score is determined as follows. The development of the disease is estimated on a daily basis. The consistence of the excrements, as well as the presence of blood in the faeces assessed with the Hemoccult® paper test, are respectively quantified by the seriousness scales of Table 3 hereinbelow. The obtained values are added together to obtain the DAI score.
The macroscopic damage score is assessed according to the protocol described in the publication of Comera et al., 1999, Dig. Dis. Sci. 44: 1448-1457, as follows. On day 7 after induction of the colitis, the rats are sacrificed by carbon dioxide CO2 inhalation, the colon (from the anus to the Caecum) is removed and the macroscopic damages are assessed according to the parameters observed and presented in Table 4 hereinbelow, to determine the macroscopic damage score.

[2] = tested on: nociceptive response induced by TNBS; assay: Nociceptive response (allodynia) by Von Frey filaments technique in TNBS colitis rats; assay type: in vivo, rat; details: 2.5 mg/kg/day, 7 days after colitis induction
Method: as §1
The intensity of the pain is measured by the Von Frey filaments technique on days […], according to the protocol described in the publication of Auge et al., 2013, Eur. J. Pharmacol. 707: 32-40.
The effect on the nociceptive response, measured by Von Frey filaments technique according to the mass of Von Frey filaments, is shown in FIG. 10 for prednisolone and in FIG. 11 for vorapaxar.

[3] = tested on: human colon epithelial cells Caco2; assay: Epithelial cells repair: cicatrisation of a lesion on a Caco2 monolayer; assay type: cell-based
Method: A lesion is practiced using a sterilised forceps on human colon epithelial cells Caco2 in monolayer and at a confluence. Afterwards, the cells are rinsed twice with sterilised […] and then placed in an adequate culture medium. In this medium, vorapaxar at different concentrations (10 nM, 100 nM, 1 μM, 10 μM) or the vehicle (control) are added in independent culture dishes. The cicatrisation of the lesion is supervised and analysed using a confocal microscope for 28 h. The percentage of the lesioned surface of the lesion is determined for each tested condition, 4 h, 22 h and 28 h after the lesion. The obtained results are shown in FIG. 12, respectively in a/, b/ and c/.

[4] = tested on: induced colitis; details: induced colitis model in mice, by reducing the inflammation phenomenon; cited from earlier work

With `CCOC(=O)N[C@@H]1CC[C@@H]2[C@@H](C1)C[C@H]1C(=O)O[C@H](C)[C@H]1[C@H]2/C=C/c1ccc(-c2cccc(F)c2)cn1` [vorapaxar, ethyl N-[(1R,3aR,4aR,6R,8aR,9S,9aS)-9-[(E)-2-[5-(3-fluorophenyl)pyridin-2-yl]ethenyl]-1-methyl-3-oxo-3a,4,4a,5,6,7,8,8a,9,9a-decahydro-1H-benzo[f][2]benzofuran-6-yl]carbamate] the “disease activity index (DAI)” value ([1]; 2.5 mg/kg daily, 7th day) was “significantly reduces”, the “apparition of oedema (thickness of the wall of the colon)” value ([1]; 2.5 mg/kg daily, 7th day, vs vehicle group) was “significantly reduces” and the “disease activity index (DAI)” value ([1]; 2.5 mg/kg, as of the 1st day, vs vehicle group) was “significantly reduced”. The “weight loss (body weight)” value ([1]; 2.5 mg/kg/day per os, as of the 2nd day) was “significantly reduces”, the macroscopic damage score ([1]; 2.5 mg/kg/day, day 7, vs vehicle group) was “significantly reduces” and the “allodynia-type response (Von Frey)” value [2] was “significantly inhibits”. The “cicatrisation of the lesion (percentage of the lesioned surface)” value ([3]; Caco2, 4 h after the lesion, 100 nM, 1 μM and 10 μM) was “highly enhanced”, the “cicatrisation of the lesion (percentage of the lesioned surface)” value ([3]; Caco2, 22 h after the lesion, 10 nM to 10 μM) was “amplifies the cicatrisation surface in a concentration-dependent way” and the “cicatrisation of the lesion (percentage of the lesioned surface)” value ([3]; Caco2, 28 h after the lesion, from 100 nm to 10 μM) was “complete cicatrisation”.
For `COc1ccc(C[C@H](NC(=O)Nc2ccc3c(CN4CCCC4)cn(Cc4c(Cl)cccc4Cl)c3c2)C(=O)N[C@@H](CCCNC(=N)N)C(=O)NCc2ccccc2)cc1` [L-arininamide-4-methoxy-N-[[[1-[92,6-dichlorophenyl-methyl]-3-(1-pyrrolidinylmethyl)-1H-indol-6-yl]amino]carbonyl]-1-phenylalanyl-N-(phenylmethyl)-(5)], the “survival rate of animals” value [4] is given as “improving the survival rate”.
